Activity data for 1 compound are collected here from ChEMBL document CHEMBL2074039 (Biochem Pharmacol, 1993).

Series [1] has as its target T1, ATP-dependent translocase ABCB1 (Homo sapiens, UniProt P08183). In words: TP_TRANSPORTER: inhibition of Azidopine photoaffinity labelling (Azidopine: 0.2 uM, trans-flupenthioxol: 1 uM) in membranes from KB/V20C cells. It counts as functional, cell membranes, Membrane.
The target of series [2] is T1, ATP-dependent translocase ABCB1. In words: TP_TRANSPORTER: increase in Doxorubicin intracellular accumulation (Doxorubicin: 0-20 uM, trans-flupenthixol: 5 uM) in MCF-7/ADR cells. It counts as functional, cell-based. The settings on record: nci/adr-res.

T1 sequence (P08183 whole entry): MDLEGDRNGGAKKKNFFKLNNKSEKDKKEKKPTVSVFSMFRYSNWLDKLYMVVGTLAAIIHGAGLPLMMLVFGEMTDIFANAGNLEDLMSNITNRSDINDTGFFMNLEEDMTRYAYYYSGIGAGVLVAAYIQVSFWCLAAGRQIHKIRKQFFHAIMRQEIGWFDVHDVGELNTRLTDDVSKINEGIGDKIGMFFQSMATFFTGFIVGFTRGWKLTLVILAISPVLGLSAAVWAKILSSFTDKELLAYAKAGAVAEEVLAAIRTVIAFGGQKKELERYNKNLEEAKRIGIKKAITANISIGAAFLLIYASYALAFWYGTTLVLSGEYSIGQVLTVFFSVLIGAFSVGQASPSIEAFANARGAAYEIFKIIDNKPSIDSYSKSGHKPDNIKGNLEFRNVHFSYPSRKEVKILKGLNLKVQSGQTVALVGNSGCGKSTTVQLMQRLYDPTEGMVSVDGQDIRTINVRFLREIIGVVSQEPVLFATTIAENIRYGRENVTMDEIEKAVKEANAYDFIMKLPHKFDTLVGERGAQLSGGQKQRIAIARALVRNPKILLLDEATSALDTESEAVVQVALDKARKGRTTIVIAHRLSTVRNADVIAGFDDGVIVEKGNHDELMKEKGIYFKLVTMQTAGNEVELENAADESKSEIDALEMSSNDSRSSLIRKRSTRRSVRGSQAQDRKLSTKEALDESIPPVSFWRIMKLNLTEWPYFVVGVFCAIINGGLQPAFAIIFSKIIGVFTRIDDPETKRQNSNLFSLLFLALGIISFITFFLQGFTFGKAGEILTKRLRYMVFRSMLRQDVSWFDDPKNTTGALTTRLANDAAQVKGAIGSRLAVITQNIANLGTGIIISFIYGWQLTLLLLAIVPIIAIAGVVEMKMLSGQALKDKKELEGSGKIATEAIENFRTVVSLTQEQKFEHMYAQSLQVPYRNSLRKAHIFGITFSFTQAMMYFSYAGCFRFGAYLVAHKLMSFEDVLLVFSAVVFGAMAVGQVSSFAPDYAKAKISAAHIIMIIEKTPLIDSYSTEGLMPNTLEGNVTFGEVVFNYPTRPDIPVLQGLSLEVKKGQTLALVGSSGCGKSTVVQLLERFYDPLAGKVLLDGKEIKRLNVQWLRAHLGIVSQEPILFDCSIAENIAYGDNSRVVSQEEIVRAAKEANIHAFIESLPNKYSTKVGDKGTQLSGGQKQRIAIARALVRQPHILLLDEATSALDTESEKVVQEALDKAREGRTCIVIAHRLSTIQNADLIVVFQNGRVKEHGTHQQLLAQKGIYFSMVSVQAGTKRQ

With `OCCN1CCN(CC/C=C2\c3ccccc3Sc3ccc(C(F)(F)F)cc32)CC1` [E-FLUPENTIXOL], the Activity result in series [1] was “inhibitor [+]”; in series [2], “inhibitor [2 to 3-fold]”.
